Structures are written as SMILES.

What all share (type): physicochemical
The nature of data set [1]: TGA (Thermogravimetric Analysis) weight loss. The protocol: The weight loss for the sample was obtained using a TA Instruments TGA […] thermogravimetric calorimeter. The sample was analyzed as received and was program heated from ambient to 120° C. at 10° C./min under nitrogen purge.
A short description of data set [2]: DVS (Dynamic Vapor Sorption) cycling humidity, hygroscopicity. The note with it: full cycle in step mode at 25° C., 0-90% RH in 10% RH increments. The method, then:
(§1) A representative sample of crystalline form (IS-VI) was subjected to DVS (Dynamic Vapor Sorption) cycling humidity conditions to determine hydgroscopicity, as shown in FIG. 4. The sample was analyzed using a Surface Measurement System DVS-1 Dynamic Vapor Sorption System. The sample was analyzed full cycle in step mode at 25° C. from 0-90% RH in 10% RH increments. The equilibration conditions set were: dm/dt of 0.0007%/min, dm/dt window of 5 minutes, and minimum and maximum stages of 15 and 360 minutes. Data was collected in 1 minute intervals. Nitrogen was used as the carrier gas. The results from the DVS measurements indicate that crystalline form (IS-VI) is non-hygoscopic

Data set [3] can be described thus: Stability to temperature and humidity, concluded from DSC, TGA and DVS results. The note with it: solid state; conclusion from the results above. The protocol:
DSC (Differential Scanning Calorimetry) was measured for a representative sample of crystalline form (IS-VI), as shown in FIG. 2. DSC analysis of the sample was performed using a TA Instruments DSC Q1000 differential scanning calorimeter. The sample was analyzed as received in an open TA Instrument aluminum sample pan and was program heated from ambient to 120° C. at 10° C./min under nitrogen purge.
The weight loss for the sample was obtained using a TA Instruments TGA Q5000IR thermogravimetric calorimeter. The sample was analyzed as received and was program heated from ambient to 120° C. at 10° C./min under nitrogen purge.
as §1

`NS(=O)(=O)NC[C@H]1COc2cc(Cl)ccc2O1` [crystalline form (IS-VI), (2S)-(−)-N-(6-chloro-2,3-dihydro-benzo[1,4]dioxin-2-ylmethyl)-sulfamide]: the “hydrate state indicated by TGA” value in data set [1] (ambient to 120° C. at 10° C./min under nitrogen purge) is “non-hydrate”. Moreover, the “weight loss by TGA” value in data set [1] (heated from ambient to 120° C. at 10° C./min under nitrogen purge, ambient temperature up to and including melting) was “No weight loss was observed”. Also, the “hygroscopicity by DVS” value in data set [2] is on record as “non-hygoscopic”. Also, the “stability to temperature and humidity” value in data set [3] is “exhibits stability to temperature and humidity”.

These data come from patent publication US20090318544A1, “CRYSTALLINE FORM OF (2S)-(-)-N-(6-CHLORO-2,3-DIHYDRO-BENZO[1,4]DIOXIN-2-YLMETHYL)-SULFAMIDE” (priority 2008, published 2009).
